{
  "source": "patent US20030138430A1",
  "about": "“Pharmaceutical comprising an agent that blocks the cell cycle and an antibody” (priority 2002, published 2003)",
  "molecules": {"B1": {"name": "interferon-gamma: interferon-gamma (protein, UniProt P01579 24-161, looked up)", "Interferon gamma": "QDPYVKEAENLKKYFNAGHSDVADNGTLFLGILKNWKEESDRKIMQSQIVSFYFKLFKNFKDDQSIQKSVETIKEDMNVKFFNSNKKKRDDFEKLTNYSVTDLNVQRKAIHELIQVMAELSPAAKTGKRKRSQMLFRG"}},
  "key": {"[1]": {"test_system": "erbB2 receptor on NHBE and HMEC normal epithelial cells", "assay": "Quantitation of cell surface erbB2 presentation on normal epithelial cells", "assay_type": "cell-based, human", "conditions": "compared with untreated controls", "procedure": "Cells were exposed to Gemzar (gemcitabine (GMZ), Lilly, Indianapolis, Ind.) or 5FU (Adrucil®, Pharmacia & Upjohn) for 24 hours. Cells were exposed to interferons continuously for 2-5 days. Following drug exposure, cells were washed and cultured for another 2-5 days prior to analysis for antigen presentation and cell cycle status, except for those treated with interferons. Cells were dissociated from the culture plates using a collagenase cocktail (1:1:1,Types I, II, and IV, 0.1% (wt/vol), Gibco) in calcium- and magnesium-free phosphate-buffered saline. Cells were stained and cytometric data was collected as described in Example 1, and antigen expression was quantified as described in Example 2."}, "[2]": {"test_system": "PC-3 prostatic adenocarcinoma cells", "conditions": "PC-3 cells; Navelbine 30 nM alone or with cisplatin; GW3622W94; human PBMC effectors 50:1; 6 hours", "experimental": "Ep-CAM Antigen Expression and ADCC of Prostatic Adenocarcinoma in Culture. Biological Effectiveness in vitro as Measured by Antibody-dependent Cellular Cytotoxicity. […] Target cells were cultured overnight with 100 μCi Na2^51CrO4 (Amersham) in media, and then washed 3 times with RPMI-1640 containing 2 mM L-glutamine, 50 μg/mL gentamicin, and 10% heat-inactivated FBS. […] Spontaneous lysis wells (CPMspontaneous) received media (no effectors) and total lysis wells (CPMTotal) received Triton-X-100. Cultures were incubated for 6 hours at 37° C./5% CO2, then supernatants were harvested using Skatron filter frames (Skatron Instruments, Sterling Va.). Radioactivity was counted in a gamma counter and the percentage specific release, corrected for spontaneous lysis, was calculated."}, "[3]": {"assay": "Navelbine tolerability in CD-1 nude mice", "conditions": "intravenous, days 1 and 5, CD-1 nude mice", "experimental": "Human colon adenocarcinoma (HT-29) tumors were initiated by subcutaneous implantation into female CD-1 nude mice (Charles River). When the tumors reached 200-300 mg, animals were divided into groups of five. Navelbine was injected intravenously at a dosage of 28 mg/kg in vehicle (5% dextrose in distilled water) on days 1 and 5."}, "[4]": {"test_system": "HT-29 colon adenocarcinoma tumors", "assay": "Targeting of 177Lu-labelled antibody to Ep-CAM-positive HT-29 xenografts", "assay_type": "in vivo, mouse", "experimental": "Human colon adenocarcinoma (HT-29) tumors were initiated by subcutaneous implantation into female CD-1 nude mice (Charles River). When the tumors reached 200-300 mg, animals were divided into groups of five. […] A control group was dosed with 5-fluorouracil (5-FU) intraperitoneally at 20 mg/kg on days 1 and 5. […] Blood, spleen, liver, lung, kidney, femur, and tumor were harvested on days 1, 3 and 5 post-antibody-dose for direct gamma counting (Packard)."}, "[5]": {"test_system": "Ep-CAM antigen on HT-29 colon adenocarcinoma cells", "assay": "Internalization of lutetium-177-labeled GW1208W95 (anti-Ep-CAM)", "assay_type": "cell-based, human", "conditions": "HT-29 cells pretreated with drug; 37° C", "experimental": "Internalization of Lutetium-177-labeled GW1208W95 (anti-Ep-CAM) by Human Colon Adenocarcinoma Cells. Colon adenocarcinoma cells (HT-29) were plated in 6-well plates and cultured. Subconfluent cells were exposed to cytotoxic drugs for up to 24 hours. Cells were washed and cultured for another 2-5 days. The plates were put on ice (0° C.) for minimum of 60 minutes and lutetium-177-labeled coupled to 6,6″-bis {N,N,N″,N″-tetra(carboxymethyl)aminomethyl)-4′-(3-bromoacetamido-4-methoxyphenyl-2,2′:6,2″-terpyridine) at 0.5-1.0 mCi/mg was added at a final concentration of 6.7 nM. Cells were incubated at 0° C. for 3.5 hr. Following incubation at 0° C., the cells were washed with 2.5 mL of ice-cold phosphate-buffered saline with human serum albumin (1%) (PBS-HSA). Then 2.5 mL pre-warmed media was added and the labeled cells were incubated at 37° C. At the indicated time points, cells were washed twice with 2.5 mL PBS-HSA. Cells were incubated for 5 minutes at room temperature with 2.5 mL 0.1 M NaCl in 0.05 M glycine (pH 2.8) to detemine labeled antibody bound to the target surface antigen. The incubation was repeated and counts pooled. Internalized counts were determined by solubilization of the cell layer with 1.0 mL of 1 N NaOH. Samples were counted using a Packard CliniGamma 5000. Data was normalized to cell count for each well.\nColon adenocarcinoma cells (HT-29) in culture were pretreated with chemotherapeutic agents as described previously for the evaluation of cell cycle and cell surface antigen quantitation. […] Cells were pulse-labeled with ^177Lu-GW1208W95 (6.7 nM @ 0.5-1.0 mCi/mg protein) for a minimum of 60 minutes at 0° C. on ice to inhibit surface antigen internalization. After washing away of excess radiolabeled antibody fresh media was added, and the cells were incubated at 37° C. for time indicated. Surface-bound antibody was eluted with isotonic buffer and both acid-labile (surface-bound) and acid-stable (internalized) radioactivity were quantitated."}, "[6]": {"test_system": "erbB2 receptor on MCF-7 and MDA-MB-468 breast adenocarcinoma cells", "assay": "Quantitation of cell surface erbB2 presentation", "assay_type": "cell-based", "conditions": "for cell surface erbB2 presentation: compared with untreated controls (Example 2); for cell surface presentation of erbB2 receptor: Example 3", "procedure": "(§1) Populations of adenocarcinoma cells were evaluated for distribution in G0/G1, S and G2/M phases of the cell cycle as well as for erbB2/neu presentation. Cells were dissociated from the culture plates using Versene (Gibco) and resuspended in calcium- and magnesium-free phosphate-buffered saline containing bovine serum albumin and sodium azide. Exactly 2×10^5 cells were stained with R-Phycoerythrin-conjugated-anti-HER-2/neu murine IgG (Cat. 340552, Becton Dickinson) in buffer containing 100 μg/mL mouse IgG (Cat. 15381, Sigma). Cells were fixed with FACSLyse (Cat. 92-002, Becton Dickinson) followed by a short post-fix with ethanol at −20° C. Cellular DNA was stained with DAPI (Cat. D1306, Molecular Probes) in buffer containing RNase A (Sigma).\nSample data were collected on a FACStar^PLUS® flow cytometer (Becton Dickinson) equipped with a 488 nm argon ion laser in position 1 and a 350 nm argon ion laser in position 2. For each cell analyzed, data was collected on signal pulses from linear forward scatter height and width, linear area and width of DAPI fluorescence for DNA, and logarithmic fluorescence height of the HER-2/neu antibody probe. The resulting listmode files were processed using Winlist 3D© software (Verity Software House, Topsham, Me.). […] The remaining cells were analyzed for cell cycle position by manual gating and HER-2/neu surface antigen density. Using the bead standard system described in Example 2, values of mean fluorescence intensity for HER-2/neu and other antigens were converted to values of “Antibodies Bound per Cell” (ABC) during analysis.\nCells were exposed to Gemzar (gemcitabine (GMZ), Lilly, Indianapolis, Ind.) for 24 hours. […] Following drug exposure, cells were washed and cultured for another 2-5 days prior to analysis for antigen presentation and cell cycle status, except for those treated with BB-94. Cells were dissociated from the culture plates using Versene (Gibco) and resuspended in calcium- and magnesium-free phosphatebuffered saline containing bovine serum albumin and sodium azide. Exactly 2×10^5 cells were stained as described in Example 1. Antigen presentation was quantified against calibrated bead standards calibrated by the vendor for murine IgG binding capacity (Quantum Simply Cellular Bead, Cat. QSC-100, Sigma); calibration beads were stained with R-phycoerythrin-conjugated anti-HER-2/neu murine IgG. Plots of fluorescence intensity against bead IgG binding capacity were constructed, and molecules of IgG bound per cell was read from the fluorescence intensity of the stained cells.\nCells were exposed to interferons continuously for 2-5 days. […] Exactly 2×10^5 cells were stained as described in Example 1, and antigen expression was quantified as described in Example 2."}, "[7]": {"test_system": "Ep-CAM antigen on HT-29 colon adenocarcinoma cells", "assay": "Quantitation of cell surface Ep-CAM antigen with FITC-323/A3", "assay_type": "cell-based, human", "conditions": "HT-29 cells after drug exposure, vs media control", "procedure": "(§2) FIG. 7. Cell Cycle Analysis and Quantitation of Antigen Expression. Populations of adenocarcinoma cells were evaluated for distribution in G0/G1, S, and G2/M phases of the cell cycle as well as Ep-CAM presentation on the cell surface. […] Cells were exposed to 5-fluorouracil (5-FU) for 24 hours, and to the interferons continuously for 2-5 days. Cells were washed and cultured for another 2 days prior to analysis for antigen presentation except for cells exposed to interferons. Cells were lightly trypsinized and mechanically detached from the culture flasks and resuspended in calcium- and magnesium-free phosphate-buffered saline containing bovine serum albumin and sodium azide. Exactly 2×10^5 cells were stained with FITC-323/A3 murine IgG antibody or FITC-murine IgG (control). Cells were fixed with cold paraformaldehyde, then permeabilized for DNA staining with Tween-20. Cellular DNA was stained with a propidium iodide buffer containing RNAse A. Listmode data were acquired using Lysis II software on a FACScan flow cytometer (Becton Dickinson Immunocytometry Systems) equipped with a 488 nm laser. Cell cycle analysis was done using CellFit software for SOBR modeling of the histograms (where possible, otherwise manual estimations were employed) on Cell-Fit. Ep-CAM antigen presentation was quantitated by comparison of the mean fluorescence intensity of fluorescein-conjugated 323/A3 bound to cultured cells with the fluorescence intensity of calibrated microbead standards and evaluated separately using histogram analysis in WinList (Verity Software House). Standard curves of calibration bead concentration versus fluorescence intensity were constructed in SoftMax Pro (Molecular Devices, Inc.), and fluorescence intensity of stained cells was used to calculate the number of antigen molecules per cell for the population.\n(§3) Adenocarcinoma cells (HT-29) were exposed to Navelbine or Taxol or combinations of drugs as indicated in FIG. 7 and the cells were evaluated for cell surface Ep-CAM presentation in addition to cell cycle distribution. […]"}, "[8]": {"test_system": "HT-29 colon adenocarcinoma cells", "assay": "Cell cycle analysis by flow cytometry (propidium iodide)", "assay_type": "cell-based, human", "conditions": "HT-29 cells; media control 6.3%", "procedure": "as §2, §3"}, "[9]": {"test_system": "erbB2 receptor on BT-474 breast and NCI H322 lung adenocarcinoma cells", "assay": "Quantitation of cell surface erbB2 presentation, high erbB2 cell lines", "assay_type": "cell-based", "conditions": "BT-474 and H322", "procedure": "(§4) Cells were dissociated from the culture plates using Versene (Gibco) and resuspended in calcium- and magnesium-free phosphate-buffered saline containing bovine serum albumin and sodium azide. Exactly 2×10^5 cells were stained with R-Phycoerythrin-conjugated-anti-HER-2/neu murine IgG (Cat. 340552, Becton Dickinson) in buffer containing 100 μg/mL mouse IgG (Cat. 15381, Sigma). Cells were fixed with […]. 92-002, Becton Dickinson) followed by a short post-fix with ethanol at -20° C. Cellular DNA was stained with DAPI (Cat. D1306, Molecular Probes) in buffer containing RNase A (Sigma). […] For each cell analyzed, data was collected on signal pulses from linear forward scatter height and width, linear area and width of DAPI fluorescence for DNA, and logarithmic fluorescence height of the HER-2/neu antibody probe. […] The remaining cells were analyzed for cell cycle position by manual gating and HER-2/neu surface antigen density. Using the bead standard system described in Example 2, values of mean fluorescence intensity for HER-2/neu and other antigens were converted to values of “Antibodies Bound per Cell” (ABC) during analysis. […] Antigen presentation was quantified against calibrated bead standards calibrated by the vendor for murine IgG binding capacity (Quantum Simply Cellular Bead, Cat. QSC-100, Sigma); calibration beads were stained with R-phycoerythrin-conjugated anti-HER-2/neu murine IgG. […]"}, "[10]": {"test_system": "BT-474 breast and NCI H322 lung adenocarcinoma cells", "assay": "Cell cycle analysis by flow cytometry (DAPI), high erbB2 cell lines", "assay_type": "cell-based", "conditions": "BT-474 and H322; BB-94 10 μM alone", "procedure": "as §4"}, "[11]": {"test_system": "SK-BR-3, MCF-7 and BT-474 breast adenocarcinoma cell lines", "assay_type": "cell-based", "procedure": "Cells were exposed to Gemzar (gemcitabine (GMZ), Lilly, Indianapolis, Ind.) for 24 hours. […] Cells were exposed to interferons continuously for 2-5 days."}, "[12]": {"test_system": "MCF-7 and MDA-MB-468 breast adenocarcinoma cells", "assay": "Cell cycle analysis by flow cytometry (DAPI)", "assay_type": "cell-based", "conditions": "Example 3", "procedure": "as §1, with “Cellular DNA was stained with DAPI (Cat. D1306, Molecular Probes) in buffer containing RNase A (Sigma).” left out\nSample data were collected on a FACStar^PLUS® flow cytometer (Becton Dickinson) equipped with a 488 nm argon ion laser in position 1 and a 350 nm argon ion laser in position 2. For each cell analyzed, data was collected on signal pulses from linear forward scatter height and width, linear area and width of DAPI fluorescence for DNA, and logarithmic fluorescence height of the HER-2/neu antibody probe. […] The remaining cells were analyzed for cell cycle position by manual gating and HER-2/neu surface antigen density. Using the bead standard system described in Example 2, values of mean fluorescence intensity for HER-2/neu and other antigens were converted to values of “Antibodies Bound per Cell” (ABC) during analysis. […]"}},
  "note": "Where a name gives a salt, the structure may show the parent alone.",
  "data": [
    {"molecule": "CCC1=C[C@@H]2CN(C1)Cc1c([nH]c3ccccc13)[C@@](C(=O)OC)(c1cc3c(cc1OC)N(C)[C@H]1[C@@](O)(C(=O)OC)[C@H](OC(C)=O)[C@]4(CC)C=CCN5CC[C@]31[C@@H]54)C2", "note": "(relative stereo) [Navelbine, 3′, 4′-didehydro-4′-deoxy-C′-norvincaleukoblastine [R-(R*,R*)-2,3-dihydroxybutanedioate (1:2)(salt)]]", "values": [
      {"measurement": "cell surface erbB2 presentation", "setting": "[1]", "result": "no significant increases"},
      {"measurement": "ADCC lysis of antibody-coated tumor target cells after drug pre-treatment", "setting": "[2]", "result": "improved"},
      {"measurement": "LD10", "setting": "[3]", "result": "~28", "unit": "mg/kg"},
      {"measurement": "tumor regression", "setting": "[4]; Navelbine 28 mg/kg i.v. days 1 and 5, HT-29 xenografts", "result": "minimal tumor regression"},
      {"measurement": "increase in tumor targeting of 177Lu-labelled antibody", "setting": "[4]; Navelbine pretreatment 28 mg/kg i.v. days 1 and 5, relative to vehicle- or 5-FU-treated animals", "result": 2, "unit": "fold"},
      {"measurement": "internalization of the radiolabelled antibody 177Lu-GW1208W95", "setting": "[5]", "result": "significantly inhibited internalization"},
      {"measurement": "cell surface erbB2 presentation", "setting": "[6]", "result": "significant increases"}
    ]},
    {"molecule": "O=c1[nH]cc(F)c(=O)[nH]1", "note": "[5-FU, 5-fluorouracil]", "values": [
      {"measurement": "cell surface Ep-CAM expression", "setting": "[7]", "result": "not significantly increased"},
      {"measurement": "cells in S and G2/M phases combined", "setting": "[8]", "result": 7.9, "unit": "%"},
      {"measurement": "internalization of the radiolabelled antibody 177Lu-GW1208W95", "setting": "[5]", "result": "extensive internalization"}
    ]},
    {"molecule": "CNC(=O)[C@H](Cc1ccccc1)NC(=O)[C@H](CC(C)C)[C@H](CSc1cccs1)C(=O)NO", "note": "[BB-94]", "values": [
      {"measurement": "cell surface erbB2 presentation", "setting": "[9]", "result": "increase in erbB2 presentation"},
      {"measurement": "cell cycle distribution", "setting": "[10]", "result": "did not affect cell cycle distribution"}
    ]},
    {"molecule": "Nc1ccn([C@@H]2O[C@H](CO)[C@@H](O)C2(F)F)c(=O)n1", "note": "[Gemzar, gemcitabine]", "values": [
      {"measurement": "cell surface erbB2 presentation", "setting": "[9]", "result": "significant increases"},
      {"measurement": "toxicity to cell lines based on the 18 s values", "setting": "[11]", "result": "toxic"}
    ]},
    {"molecule": "CC(=O)O[C@H]1C(=O)[C@@]2(C)[C@H]([C@H](OC(=O)c3ccccc3)[C@]3(O)C[C@H](OC(=O)[C@H](O)[C@@H](NC(=O)c4ccccc4)c4ccccc4)C(C)=C1C3(C)C)[C@]1(OC(C)=O)CO[C@@H]1C[C@@H]2O", "note": "[Taxol, 5β, 20 epoxy-1,2α,4,7β,10β,13α-hexahydroxytax-11-en-9-one 4,10-diacetate 2-benzoate 13-ester with (2R, 3S)-N-benzoyl-3-phenylisoserine]", "values": [
      {"measurement": "cell surface erbB2 presentation", "setting": "[1]", "result": "no significant increases"},
      {"measurement": "internalization of the radiolabelled antibody 177Lu-GW1208W95", "setting": "[5]", "result": "significantly inhibited internalization"},
      {"measurement": "cell surface erbB2 presentation", "setting": "[6]", "result": "significant increases"}
    ]},
    {"molecule": "interferon-alpha", "values": [
      {"measurement": "cell surface Ep-CAM expression", "setting": "[7]", "result": "not significantly increased"},
      {"measurement": "cell cycle distribution", "setting": "[12]", "result": "not significantly different from media control cells"},
      {"measurement": "cells in S and G2/M phases combined", "setting": "[8]", "result": 12, "unit": "%"},
      {"measurement": "cell surface presentation of erbB2 receptor", "setting": "[6]", "result": "not significantly increased"}
    ]},
    {"molecule": "interferon-gamma: interferon-gamma", "values": [
      {"measurement": "cell surface Ep-CAM expression", "setting": "[7]", "result": "not significantly increased"},
      {"measurement": "cell cycle distribution", "setting": "[12]", "result": "not significantly different from media control cells"},
      {"measurement": "cells in S and G2/M phases combined", "setting": "[8]", "result": 11.5, "unit": "%"},
      {"measurement": "cell surface presentation of erbB2 receptor", "setting": "[6]", "result": "not significantly increased"}
    ]},
    {"molecule": "B1", "values": [
      {"measurement": "toxicity to cell lines based on the 18 s values", "setting": "[11]", "result": "toxic"}
    ]}
  ]
}
